Reference: patent US3969521A, “Pharmaceutical compositions containing tetrahydroalstonine and method for treating circulation disorders” (Science Union et Cie, Societe Francaise de Recherche Medical, priority 1974, dated 1976)
“Also recorded” adds a separate entry of the source.

Experiments:
brain blood circulation = test: Effect on the brain blood circulation and on the consumption of oxygen and glucose by the brain, anaesthetized dogs; type: in vivo, dog; parameters: O2 cap. = amount of oxygen supplied to the brain tissues / art. QO2 / QO2: unit not given here; settings: 100 mg/kg perorally
Excerpt: Effect of tetrahydroalstonine on the brain blood circulation and on the consumption of oxygen and of glucose by the brain.
On arterial and venous blood sample the concentration of glucose has been determined enzymatically according to the method of hexokinase (C. Hennon and co-workers).
The determination of the pressure of oxygene (PO2) has been carried out with a polarographic analyser and that of carbonic anhydride (PCO2) in the arterial or venous brain blood, using a Duo-Matic electrometer IL 123.

in vivo = settings: mouse, po
Experimental: (§1) The search of an acute toxicity has been carried out on lots of mice (Rockland strain) weighing from […]. The mice received orally increasing dosis of tetrahydroalstonine suspended in an aqueous solvent.
(§2) The animals are kept under survey for 7 days and the deaths are recorded. The average lethal dosis has been graphically calculated according to the method of Wilcoxon and Litchfield. A lot of mice received only the solvent as controls.

mice (Rockland strain) = test: Acute toxicity, oral; settings: mouse, in vivo
Experimental: as §1, §2

central nervous system = test: Effects on the central nervous system; type: in vivo
[1] = tested on: Hexobarbital-induced sleeping time; test: Hexobarbital-induced sleeping time; type: in vivo; settings: rodents, high dosages
[2] = tested on: sleep after injection of Nembutal; test: Time of inducing the sleep after injection of Nembutal; type: in vivo; settings: even at low dosages
[3] = tested on: analgetic effect of Morphine; test: Analgetic effect of Morphine; settings: in vivo
arterial blood pressure = settings: dog, in vivo, 100 mg/kg
Experimental: This test has been carried out on lots of five dogs weighing from 16 to 20 kg. The dogs have been previously anaesthetized with chloralose by intravenous way and the intravenous injection of 50 mg heparine for each dog is renewed every 150 minutes.
The average arterial blood pressure is determined by dissection of a brachial artery and insertion of a catheter connected with a Statham P23 Db transducer.
The various parameters have been recorded by means on a polygraph and the hemodynamic survey has been afforded with two tracks-cathodic tubes.

[4] = tested on: carrageenin-induced paw oedema; settings: rat, thesis (Kocialski); cited from earlier work

## COC(=O)C1=CO[C@@H](C)[C@@H]2CN3CCc4c([nH]c5ccccc45)[C@@H]3C[C@H]12 [Tetrahydroalstonine]
Brain blood circulation
  concentration of oxygen in the brain capillars: increased
  consumption of glucose by the brain: increase
  consumption of oxygen per minute: increased
  difference in concentration between arterial and venous oxygen: increased
  partial pressure in brain venous oxygen (PO2 VC): decrease
Brain blood circulation; 45 minutes (Table I)
  Cerebral flow: 89,8 ml/mn
  Concentration in capillary oxygen: 9,3
  Concentration in oxygen/mn: 12,8
  Consumption in glucose/mn: 7,1
  G/O = consumption in glucose per mn / concentration in oxygen: 0,6
  QO2: 14,3
Brain blood circulation; 67 minutes (Table I)
  Cerebral flow: 92,4 ml/mn
  Concentration in capillary oxygen: 8,7
  Concentration in oxygen/mn: 12,4
  Consumption in glucose/mn: 10,7
  G/O = consumption in glucose per mn / concentration in oxygen: 0,9
  QO2: 13,1
Brain blood circulation; 90 minutes (Table I)
  Cerebral flow: 95,8 ml/mn
  Concentration in capillary oxygen: 8,5
  Concentration in oxygen/mn: 12,4
  Consumption in glucose/mn: 11,3
  G/O = consumption in glucose per mn / concentration in oxygen: 1,0
  QO2: 12,6
Brain blood circulation; 112 minutes (Table I)
  Cerebral flow: 90,6 ml/mn
  Concentration in capillary oxygen: 8,4
  Concentration in oxygen/mn: 11,5
  Consumption in glucose/mn: 12,1
  G/O = consumption in glucose per mn / concentration in oxygen: 1,1
  QO2: 12,4
Brain blood circulation; 135 minutes (Table I)
  Cerebral flow: 84,8 ml/mn
  Concentration in capillary oxygen: 8,5
  Concentration in oxygen/mn: 11,4
  Consumption in glucose/mn: 10,9
  G/O = consumption in glucose per mn / concentration in oxygen: 1,2
  QO2: 12,9
Brain blood circulation; +45 min. (Table II)
  CE p. 100 glucose: 8,22 p. 100
  DC = Cerebral blood flow: 90,0 ml/mn
  G/O: 1,08
  O2 /min.: 6,14
  O2 cap. = amount of oxygen supplied to the brain tissues: 5,05
  PO2 vc = partial pressure of venous oxygen in the brain: 28,50
  art. QO2: 14,16
  art. pH: 7,39
  arterial Q gluc.: 900 mg
  consumption in Gluc./min.: 6,66
  ΔH^+/ΔQO2: -4,44
  ΔPCO2/ΔQO2: 109,97
  ΔQO2: +6,82
Brain blood circulation; +67 min. (Table II)
  CE p. 100 glucose: 12,73 p. 100
  DC = Cerebral blood flow: 99,0 ml/mn
  G/O: 1,38
  O2 /min.: 8,40
  O2 cap. = amount of oxygen supplied to the brain tissues: 5,95
  PO2 vc = partial pressure of venous oxygen in the brain: 24,25
  art. QO2: 14,50
  art. pH: 7,425
  arterial Q gluc.: 919 mg
  consumption in Gluc./min.: 11,58
  ΔH^+/ΔQO2: -6,75
  ΔPCO2/ΔQO2: 114,84
  ΔQO2: +8,49
Brain blood circulation; +90 min. (Table II)
  CE p. 100 glucose: 11,70 p. 100
  DC = Cerebral blood flow: 112,5 ml/mn
  G/O: 1,20
  O2 /min.: 10,38
  O2 cap. = amount of oxygen supplied to the brain tissues: 6,07
  PO2 vc = partial pressure of venous oxygen in the brain: 21,75
  art. QO2: 14,25
  art. pH: 7,455
  arterial Q gluc.: 949 mg
  consumption in Gluc./min.: 12,49
  ΔH^+/ΔQO2: -7,96
  ΔPCO2/ΔQO2: 111,05
  ΔQO2: +9,23
Brain blood circulation; +112 min. (Table II)
  CE p. 100 glucose: 12,24 p. 100
  DC = Cerebral blood flow: 112,5 ml/mn
  G/O: 1,37
  O2 /min.: 9,74
  O2 cap. = amount of oxygen supplied to the brain tissues: 5,88
  PO2 vc = partial pressure of venous oxygen in the brain: 23,0
  art. QO2: 13,95
  art. pH: 7,44
  arterial Q gluc.: 972 mg
  consumption in Gluc./min.: 13,39
  ΔH^+/ΔQO2: -7,39
  ΔPCO2/ΔQO2: 103,93
  ΔQO2: +8,66
Brain blood circulation; +135 min. (Table II)
  CE p. 100 glucose: 12,84 p. 100
  DC = Cerebral blood flow: 92,0 ml/mn
  G/O: 1,28
  O2 /min.: 9,22
  O2 cap. = amount of oxygen supplied to the brain tissues: 6,33
  PO2 vc = partial pressure of venous oxygen in the brain: 19,75
  art. QO2: 14,18
  art. pH: 7,48
  arterial Q gluc.: 997 mg
  consumption in Gluc./min.: 11,78
  ΔH^+/ΔQO2: -8,75
  ΔPCO2/ΔQO2: 129,74
  ΔQO2: +10,02
Brain blood circulation; conclusion
  blood flow: noticeable and extended over a large period of time increase
  brain metabolism: significant improvement
In vivo
  LD50 at 168 h: > 3000 mg/kg
Mice (Rockland strain)
  toxicity: practically devoid of toxic effect
Central nervous system; dosage not stated
  effect on the central nervous system: diphasic
Central nervous system; higher dosages (20 to 40 mg/kg per os)
  effect on the central nervous system: sedative effect
Central nervous system; higher dosages (dose not stated)
  effect on the central nervous system: sedative effects
Central nervous system; low dosages
  effect on the central nervous system: stimulating properties; also recorded: slight stimulating action
[1]
  Hexobarbital-induced sleeping time: increased
[2]
  time of inducing the sleep after injection of Nembutal: increase
[3]
  effect on the analgetic effect of Morphine: increases the analgetic effect of Morphine
Arterial blood pressure
  noticeable decrease of the blood arterial pressure (incidence): one case out of five
[4]
  effect on carrageenin-induced paw oedema: negative
